Our source for the IC50 values is patent US20240335420A1, “N-ACYLHYDRAZONE COMPOUNDS CAPABLE OF INHIBITING NAV 1.7 AND/OR NAV 1.8, PROCESSES FOR THE PREPARATION THEREOF, COMPOSITIONS, USES, METHODS FOR TREATMENT USING SAME AND KITS” (EUROFARMA LABORATÓRIOS S.A., priority 2021, published 2024).

Assay type in all cases: cell-based
Assay [1] concerns the target T1, human sodium channels Nav 1.8 (Homo sapiens (Human), UniProt Q9Y5Y9). Kind of assay: Automated whole-cell voltage-clamp (ScreenPatch 384P), Nav 1.8 sodium current, Protocol 2. Conditions: Protocol 2 (holding −100 mV, inactivation step −40 mV 8 s, 0.05 Hz); CHO cells expressing human Nav 1.8; read-out: Nav1.8 IC50. The procedure: (§1) Biological assays were performed on Chinese hamster ovary (CHO) cells expressing the human sodium channels Nav 1.8 and Nav 1.7 stably.
(§2) The experimental voltage-clamp protocol using the whole cell configuration was established on the automated ScreenPatch® 384P platform (SP384PE, Nanion Technologies, Livingston, NJ) and recording of the results was performed with a Nanion 384-well Patch Clamp chip (NPC) (Nanion Technologies, Livingston, NJ).
(§3) Compounds of Formula (I), were diluted in eight concentrations in the extracellular solution composed of physiological saline, buffered with HEPES (mM): NaCl, 137; KCl, 4; CaCl2, 3.8; MgCl2, 1; HEPES, 10; Glucose, 10; pH 7.4. The […], 50; CsF, 90; MgCl2, 5; EGTA, 5; HEPES, 10; pH 7.2. The duration of exposure of each compound with the cells expressing Nav 1.7 or Nav 1.8 was at least five minutes and the assays were performed at room temperature.
(§4) The measurements of the sodium currents of Nav 1.8 and Nav 1.7 were obtained using the voltage protocols described below: • Protocol 1: A holding voltage of −90 mV was established followed by a voltage phase of 200 ms to −120 mV, followed by a voltage step of 10 mV for 1 second for Nav 1.8 or 0 mV for Nav 1.7, followed by a step of −100 mV for 20 ms, followed by a step of 20 ms for 10 mV for Nav 1.8 or 0 mV for Nav 1.7 (TP1A) before returning to the holding voltage of −90 mV. • Protocol 2: A holding voltage of −100 mV was established followed by an inactivation voltage step at −40 mV for 8 seconds, followed by a −100 mV step for […], followed by a 20 ms step for 10 mV for Nav 1.8 or 0 mV for Nav 1.7 (TP1A) before returning to the holding voltage of −100 mV.
(§5) Protocols were repeated at a frequency of 0.1 Hz (Protocol 1) or 0.05 Hz (Protocol 2) and current amplitude was quantified over the TP1A phase log. The variation in the peak amplitude of the current was evaluated according to the Formula described below, after exposure of the cells expressing the channels, at each concentration of the different compounds:
(§6) [formula] • where |TP1A, basal, and |TP1A, molecule represent the entry peaks of sodium currents into TP1A prior to exposure to the compound and in the presence of the compound, respectively.
(§7) The decrease in peak current amplitude, after exposure of the cells to the compounds, was used to calculate the percent relative blocking of the channels relative to the positive control according to the Formula below:
(§8) [formula] • where % V and % CP represent the averages of the values of current inhibition with a vehicle (DMSO) and positive controls, respectively. The sodium currents of the positive control were considered as 100%.
(§9) [formula] • where [Test] represents the concentration of the evaluated molecule, IC50 is the concentration of the compound that generates half of the maximum inhibition, N is the Hill's coefficient and % Block′ is the percentage of the sodium channel current (Nav 1.8 and Nav 1.7) inhibited at each concentration of the evaluated molecule. Data were obtained by non-linear least squares regression with XLfit for Excel (Microsoft, Redmond, WA).
(§10) Compounds were tested in at least one assay to obtain the IC50 value.

The target of assay [2] is T2, human sodium channels Nav 1.7 (Homo sapiens (Human), UniProt Q15858). The experiment in a line: Automated whole-cell voltage-clamp (ScreenPatch 384P), Nav 1.7 sodium current, Protocol 2. To be noted: Protocol 2 (holding −100 mV, inactivation step −40 mV 8 s, 0.05 Hz); CHO cells expressing human Nav 1.7; read-out: Nav1.7 IC50. The procedure: as §1, §2, §3, §4, §5, §6, §7, §8, §9, §10
T2 sequence (Q15858 whole entry): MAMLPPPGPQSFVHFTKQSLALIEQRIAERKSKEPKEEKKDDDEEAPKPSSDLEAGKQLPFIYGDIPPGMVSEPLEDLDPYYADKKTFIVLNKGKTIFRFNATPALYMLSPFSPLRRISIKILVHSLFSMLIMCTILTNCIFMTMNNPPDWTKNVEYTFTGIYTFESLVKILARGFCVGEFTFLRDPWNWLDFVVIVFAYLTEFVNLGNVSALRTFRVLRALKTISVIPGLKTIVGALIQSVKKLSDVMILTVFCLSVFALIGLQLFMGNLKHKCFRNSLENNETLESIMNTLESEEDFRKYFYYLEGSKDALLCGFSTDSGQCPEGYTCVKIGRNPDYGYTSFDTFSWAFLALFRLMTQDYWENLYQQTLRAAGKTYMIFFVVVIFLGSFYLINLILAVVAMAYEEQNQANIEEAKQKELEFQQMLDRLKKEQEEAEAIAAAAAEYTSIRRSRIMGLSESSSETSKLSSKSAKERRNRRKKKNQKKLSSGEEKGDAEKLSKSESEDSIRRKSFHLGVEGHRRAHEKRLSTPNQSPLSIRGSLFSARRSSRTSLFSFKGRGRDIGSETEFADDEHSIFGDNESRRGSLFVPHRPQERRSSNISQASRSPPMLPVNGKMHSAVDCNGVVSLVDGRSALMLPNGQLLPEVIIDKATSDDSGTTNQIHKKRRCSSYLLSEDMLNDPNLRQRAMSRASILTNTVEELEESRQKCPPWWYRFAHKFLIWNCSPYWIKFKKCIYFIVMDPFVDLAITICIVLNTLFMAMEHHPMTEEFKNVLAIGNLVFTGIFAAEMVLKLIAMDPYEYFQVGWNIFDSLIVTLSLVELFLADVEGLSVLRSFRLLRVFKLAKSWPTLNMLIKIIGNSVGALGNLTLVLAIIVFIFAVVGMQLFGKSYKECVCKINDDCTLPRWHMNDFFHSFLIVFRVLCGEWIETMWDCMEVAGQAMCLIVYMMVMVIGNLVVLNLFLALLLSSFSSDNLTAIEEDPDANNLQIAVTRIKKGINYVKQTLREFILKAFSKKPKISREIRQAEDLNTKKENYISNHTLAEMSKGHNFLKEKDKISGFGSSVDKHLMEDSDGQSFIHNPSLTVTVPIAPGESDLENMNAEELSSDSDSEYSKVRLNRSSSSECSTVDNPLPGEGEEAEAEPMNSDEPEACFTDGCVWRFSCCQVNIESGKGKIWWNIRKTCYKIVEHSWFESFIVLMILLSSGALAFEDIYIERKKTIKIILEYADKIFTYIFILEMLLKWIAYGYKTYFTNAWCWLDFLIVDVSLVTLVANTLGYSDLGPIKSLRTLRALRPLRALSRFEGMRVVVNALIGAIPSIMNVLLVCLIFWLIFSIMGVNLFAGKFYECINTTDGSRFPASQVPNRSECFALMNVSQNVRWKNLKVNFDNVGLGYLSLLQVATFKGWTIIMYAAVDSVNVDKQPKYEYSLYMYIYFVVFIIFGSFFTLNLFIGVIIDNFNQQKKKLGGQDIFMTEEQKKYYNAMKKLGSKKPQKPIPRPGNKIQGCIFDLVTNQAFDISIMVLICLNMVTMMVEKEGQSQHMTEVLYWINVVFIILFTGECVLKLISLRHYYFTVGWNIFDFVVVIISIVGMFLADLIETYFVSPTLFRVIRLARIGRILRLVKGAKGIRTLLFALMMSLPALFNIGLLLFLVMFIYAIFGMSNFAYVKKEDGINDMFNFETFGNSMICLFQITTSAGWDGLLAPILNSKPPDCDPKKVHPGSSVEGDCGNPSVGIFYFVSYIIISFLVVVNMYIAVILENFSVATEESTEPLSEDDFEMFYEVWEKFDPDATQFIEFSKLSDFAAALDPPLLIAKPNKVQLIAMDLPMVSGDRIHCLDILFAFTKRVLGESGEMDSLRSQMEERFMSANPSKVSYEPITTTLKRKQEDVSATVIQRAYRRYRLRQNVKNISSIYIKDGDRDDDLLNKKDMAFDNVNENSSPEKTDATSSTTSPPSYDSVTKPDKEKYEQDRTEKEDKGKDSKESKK

The target of assay [3] is T2, human sodium channels Nav 1.7. Kind of assay: Automated whole-cell voltage-clamp (ScreenPatch 384P), Nav 1.7 sodium current, Protocol 1. Conditions: Protocol 1 (holding −90 mV, 0.1 Hz); CHO cells expressing human Nav 1.7; room temperature; read-out: Nav1.7 IC50. The procedure: as §1, §2, §3, §4, §5, §6, §7, §8, §9, §10
The target of assay [4] is T1, human sodium channels Nav 1.8. The experiment in a line: Automated whole-cell voltage-clamp (ScreenPatch 384P), Nav 1.8 sodium current, Protocol 1. Conditions: Protocol 1 (holding −90 mV, 0.1 Hz); CHO cells expressing human Nav 1.8; room temperature; read-out: Nav1.8 IC50. The procedure: as §1, §2, §3, §4, §5, §6, §7, §8, §9, §10

Where only a bound is given, the exact number is not on record here.

T1 sequence (Q9Y5Y9 whole entry): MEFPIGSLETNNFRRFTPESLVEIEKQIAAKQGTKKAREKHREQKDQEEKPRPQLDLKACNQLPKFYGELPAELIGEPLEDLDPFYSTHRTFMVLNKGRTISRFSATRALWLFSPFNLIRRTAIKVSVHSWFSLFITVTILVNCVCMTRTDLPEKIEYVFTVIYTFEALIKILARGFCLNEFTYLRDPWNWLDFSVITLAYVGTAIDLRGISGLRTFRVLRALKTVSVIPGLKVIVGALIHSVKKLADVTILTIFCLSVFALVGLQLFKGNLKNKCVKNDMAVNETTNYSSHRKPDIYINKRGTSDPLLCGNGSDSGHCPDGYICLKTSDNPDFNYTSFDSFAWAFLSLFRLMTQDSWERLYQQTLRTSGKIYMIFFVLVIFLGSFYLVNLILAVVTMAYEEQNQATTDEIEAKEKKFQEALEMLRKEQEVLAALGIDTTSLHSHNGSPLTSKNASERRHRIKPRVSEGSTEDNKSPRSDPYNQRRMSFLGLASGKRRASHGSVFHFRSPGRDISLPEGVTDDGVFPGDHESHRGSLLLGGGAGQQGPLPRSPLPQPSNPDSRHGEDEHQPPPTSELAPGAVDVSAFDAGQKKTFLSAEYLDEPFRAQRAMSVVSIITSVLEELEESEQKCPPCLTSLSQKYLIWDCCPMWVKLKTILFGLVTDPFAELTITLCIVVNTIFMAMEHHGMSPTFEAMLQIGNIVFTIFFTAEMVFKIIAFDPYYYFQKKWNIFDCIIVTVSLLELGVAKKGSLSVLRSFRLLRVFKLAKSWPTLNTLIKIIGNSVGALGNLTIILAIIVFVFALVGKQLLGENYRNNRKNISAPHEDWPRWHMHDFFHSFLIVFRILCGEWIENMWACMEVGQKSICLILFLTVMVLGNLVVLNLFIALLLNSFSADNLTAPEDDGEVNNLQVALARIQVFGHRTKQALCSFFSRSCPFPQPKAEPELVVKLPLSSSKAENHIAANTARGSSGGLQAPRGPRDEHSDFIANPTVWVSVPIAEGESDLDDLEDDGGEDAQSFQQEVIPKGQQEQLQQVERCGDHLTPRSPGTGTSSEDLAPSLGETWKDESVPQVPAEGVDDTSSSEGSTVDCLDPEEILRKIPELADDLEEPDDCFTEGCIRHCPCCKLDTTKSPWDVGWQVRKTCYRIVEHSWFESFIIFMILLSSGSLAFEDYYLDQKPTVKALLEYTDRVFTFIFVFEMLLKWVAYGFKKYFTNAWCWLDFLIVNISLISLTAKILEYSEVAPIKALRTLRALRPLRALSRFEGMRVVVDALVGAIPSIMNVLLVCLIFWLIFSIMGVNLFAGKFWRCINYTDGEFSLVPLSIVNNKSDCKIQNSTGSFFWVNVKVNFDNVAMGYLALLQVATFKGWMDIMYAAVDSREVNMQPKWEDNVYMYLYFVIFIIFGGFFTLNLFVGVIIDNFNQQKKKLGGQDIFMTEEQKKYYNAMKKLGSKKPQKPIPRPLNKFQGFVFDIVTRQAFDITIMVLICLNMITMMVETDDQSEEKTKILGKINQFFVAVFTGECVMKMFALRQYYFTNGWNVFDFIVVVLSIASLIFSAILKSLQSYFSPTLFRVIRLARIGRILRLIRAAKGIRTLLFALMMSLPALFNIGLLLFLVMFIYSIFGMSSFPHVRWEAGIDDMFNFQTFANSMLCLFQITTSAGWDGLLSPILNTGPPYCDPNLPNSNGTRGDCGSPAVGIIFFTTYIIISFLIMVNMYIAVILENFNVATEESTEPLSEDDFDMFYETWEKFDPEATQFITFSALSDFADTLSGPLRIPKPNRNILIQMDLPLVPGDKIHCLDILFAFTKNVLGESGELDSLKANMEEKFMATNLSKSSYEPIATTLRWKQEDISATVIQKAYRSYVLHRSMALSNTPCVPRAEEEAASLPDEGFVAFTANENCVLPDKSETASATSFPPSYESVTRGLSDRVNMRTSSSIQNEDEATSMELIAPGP

With `COc1ccc(-c2cccc(C(=O)N/N=C/c3cc(OC)cc(OC)c3)n2)cc1` [Compound 14, (E)-N′-(3,5-dimethoxybenzylidene)-6-(4-methoxyphenyl) picolinohydrazide], the IC50 was found to be 754 nM in assay [1] and 1320 nM in assay [2].
Consider `CCCOc1ccc(-c2cccc(C(=O)N/N=C/c3cc(OC)cc(OC)c3)n2)cc1` [Compound 15, (E)-N′-(3,5-dimethoxybenzylidene)-6-(4-propoxyphenyl) picolinohydrazide], for which the 50% inhibitory concentration (IC50) in assay [1] amounted to 297 nM; in assay [2], 272 nM.
As to `CCOc1ccc(-c2cccc(C(=O)N/N=C/c3cc(OC)cc(OC)c3)n2)cc1` [Compound 31, (E)-N′-(3,5-dimethoxybenzylidene)-6-(4-ethoxyphenyl) picolinohydrazide], the values for the IC50 in assay [1] and in assay [2] were 224 nM and 444 nM, respectively.
`CCCCOc1ccc(-c2cc(C(=O)N/N=C/c3cc(OC)cc(OC)c3)ccn2)cc1` [Compound 38, (E)-2-(4-butoxyphenyl)-N′-(3,5-dimethoxybenzylidene) isonicotinohydrazide]: the IC50 is greater than 1000 nM in assay [1] and greater than 10000 nM in assay [2].
In the case of `COc1cc(/C=N/NC(=O)c2ccnc(-c3ccc(OC4CCCC4)cc3)c2)cc(OC)c1` [Compound 39, (E)-2-(4-(cyclopentyloxy)phenyl)-N′-(3,5-dimethoxybenzylidene) isonicotinohydrazide], the half-inhibitory concentration (IC50) in assay [1] is greater than 1000 nM; in assay [2], greater than 10000 nM.
On to `COc1cc(/C=N/NC(=O)c2cccc(-c3ccc(OC(F)(F)F)cc3)n2)cc(OC)c1` [Compound 40, (E)-N′-(3,5-dimethoxybenzylidene)-6-(4-(trifluoromethoxy)phenyl) picolinohydrazide], for which the IC50 came out at 140 nM in assay [1] and 123 nM in assay [2].
The corresponding values for `CCCCOc1ccc(-c2cccc(C(=O)N/N=C/c3cc(OC)cc(OC)c3)n2)cc1` [Compound 41, (E)-6-(4-butoxyphenyl)-N′-(3,5-dimethoxybenzylidene) picolinohydrazide] are greater than 1000 nM and 1200 nM.
On to `COc1cc(/C=N/NC(=O)c2ccnc(-c3ccc(OC(C)C)cc3)n2)cc(OC)c1` [Compound 54, (E)-N′-(3,5-dimethoxybenzylidene)-2-(4-isopropoxyphenyl)pyrimidine-4-carbohydrazide], for which the figures for the half-maximal inhibitory concentration (IC50) in assay [1] and in assay [2] were 313 nM and 137 nM, respectively.
In the case of `COc1cc(/C=N/NC(=O)c2nccc(-c3ccc(Cl)cc3)n2)cc(OC)c1` [Compound 60, (E)-4-(4-chlorophenyl)-N′-(3,5-dimethoxybenzylidene)pyrimidine-2-carbohydrazide], the IC50 in assay [1] is 5040 nM; in assay [2], 5150 nM.
The corresponding values for `CCOc1ccc(-c2ccnc(C(=O)N/N=C/c3cc(OC)cc(OC)c3)n2)cc1` [Compound 61, (E)-N′-(3,5-dimethoxybenzylidene)-4-(4-ethoxyphenyl)pyrimidine-2-carbohydrazide] are 183 nM and 651 nM.
As for `COc1cc(/C=N/NC(=O)c2nccc(-c3ccc(OC(C)C)cc3)n2)cc(OC)c1` [Compound 62, (E)-N′-(3,5-dimethoxybenzylidene)-4-(4-isopropoxyphenyl)pyrimidine-2-carbohydrazide], the half-inhibitory concentration (IC50) in assay [1] came to 462 nM; in assay [2], 302 nM.
With `COc1cc(/C=N/NC(=O)c2nccc(-c3ccc(OC4CCCC4)cc3)n2)cc(OC)c1` [Compound 63, (E)-4-(4-(cyclopentyloxy)phenyl)-N′-(3,5-dimethoxybenzylidene)pyrimidine-2-carbohydrazide], the concentration for half-maximal inhibition (IC50) in assay [1] is greater than 1000 nM; in assay [2], 306 nM.
On to `COc1cc(/C=N/NC(=O)c2nccc(-c3ccc(OC(F)(F)F)cc3)n2)cc(OC)c1` [Compound 64, (E)-N′-(3,5-dimethoxybenzylidene)-4-(4-(trifluoromethoxy)phenyl) pyrimidine-2-carbohydrazide], for which the values for the half-inhibitory concentration (IC50) in assay [1] and in assay [2] were 384 nM and 173 nM, respectively.
The corresponding values for `COc1ccc(-c2ccnc(C(=O)N/N=C/c3cc(OC)cc(OC)c3)n2)cc1` [Compound 65, (E)-N′-(3,5-dimethoxybenzylidene)-4-(4-methoxyphenyl)pyrimidine-2-carbohydrazide] are greater than 1000 nM and 6440 nM.
The like results for `CCCOc1ccc(-c2ccnc(C(=O)N/N=C/c3cc(OC)cc(OC)c3)n2)cc1` [Compound 66, (E)-N′-(3,5-dimethoxybenzylidene)-4-(4-propoxyphenyl)pyrimidine-2-carbohydrazide] were, in that order, greater than 1000 nM and 569 nM.
In the case of `CCOc1ccc(-c2cc(F)cc(C(=O)N/N=C/c3cc(OC)cc(OC)c3)n2)cc1` [Compound 68, (E)-N′-(3,5-dimethoxybenzylidene)-6-(4-ethoxyphenyl)-4-fluoropicolinohydrazide], the values for the half-inhibitory concentration (IC50) in assay [1] and in assay [2] were 636 nM and greater than 10000 nM, respectively.
For the molecule `CCOc1ccc(-c2cc(C(F)(F)F)cc(C(=O)N/N=C/c3cc(OC)cc(OC)c3)n2)cc1` [Compound 69], the IC50 in assay [1] was greater than 1000 nM; in assay [2], greater than 10000 nM.
On to `COc1ccc(-c2ccc(C(=O)N/N=C/c3cc(OC)cc(OC)c3)o2)cc1` [Compound 71, (E)-N′-(3,5-dimethoxybenzylidene)-5-(4-methoxyphenyl) furan-2-carbohydrazide], for which the 50% inhibitory concentration (IC50) was greater than 1000 nM in assay [1] and greater than 10000 nM in assay [2].
With `COc1ccc(-c2ccc(C(=O)N/N=C/c3cc(OC)cc(OC)c3)s2)cc1` [Compound 72, (E)-N′-(3,5-dimethoxybenzylidene)-5-(4-methoxyphenyl)thiophene-2-carbohydrazide], the IC50 was greater than 1000 nM in assay [1] and greater than 10000 nM in assay [2].
`COc1ccc(-c2ncc(C(=O)N/N=C/c3cc(OC)cc(OC)c3)o2)cc1` [Compound 73, (E)-N′-(3,5-dimethoxybenzylidene)-2-(4-methoxyphenyl) oxazole-5-carbohydrazide]: the half-inhibitory concentration (IC50) in assay [1] was greater than 1000 nM; in assay [2], greater than 10000 nM.
With `COc1ccc(-c2nc(C(=O)N/N=C/c3cc(OC)cc(OC)c3)co2)cc1` [Compound 74, (E)-N′-(3,5-dimethoxybenzylidene)-2-(4-methoxyphenol) oxazole-4-carbohydrazide], the half-maximal inhibitory concentration (IC50) in assay [1] is greater than 1000 nM; in assay [2] it was greater than 10000 nM.
As for `COc1ccc(-c2noc(C(=O)N/N=C/c3cc(OC)cc(OC)c3)n2)cc1` [Compound 75, (E)-N′-(3,5-dimethoxybenzylidene)-3-(4-methoxyphenol)-1,2,4-oxadiazole-5-carbohydrazide], the concentration for half-maximal inhibition (IC50) in assay [1] is greater than 1000 nM; in assay [2], greater than 10000 nM.
Consider `COc1ccc(-c2nc(C(=O)N/N=C/c3cc(OC)cc(OC)c3)cs2)cc1` [Compound 76, (E)-N′-(3,5-dimethoxybenzylidene)-2-(4-methoxyphenyl) thiazole-4-carbohydrazide], for which the half-maximal inhibitory concentration (IC50) in assay [1] was greater than 1000 nM; in assay [2], greater than 10000 nM.
Turning to `CCOc1ccc(-c2cccc(C(=O)N(C)/N=C/c3cc(OC)cc(OC)c3)n2)cc1` [Compound 79, (E)-N′-(3,5-dimethoxybenzylidene)-6-(4-ethoxyphenyl)-N′-methylpicolinohydrazide], the IC50 in assay [3] and in assay [4] was greater than 10000 nM in each case.
